From ChEMBL document CHEMBL3046212, “Synthesis and immunostimulating activity of C-pseudonucleosides containing N-phenyl thiazolidin-4-one” (2013) come the findings set out here.

Assay type in all cases: functional, Splenocyte
The nature of assay [1]: Immunostimulatory activity in Balb/c mouse splenocytes assessed as increase in conA-induced T cell proliferation at 5 uM after 72 hrs by MTT assay relative to control.
Assay [2] in a line: Immunostimulatory activity in Balb/c mouse splenocytes assessed as increase in conA-induced T cell proliferation at 10 uM after 72 hrs by MTT assay relative to control. (Tetrazolium dyes change colour on reduction, which living cells bring about.)
Assay [3] in a line: Immunostimulatory activity in Balb/c mouse splenocytes assessed as increase in conA-induced T cell proliferation at 25 uM after 72 hrs by MTT assay relative to control.
The nature of assay [4]: Immunostimulatory activity in Balb/c mouse splenocytes assessed as increase in conA-induced T cell proliferation at 50 uM after 72 hrs by MTT assay relative to control.
The nature of assay [5]: Immunostimulatory activity in Balb/c mouse splenocytes assessed as increase in conA-induced T cell proliferation at 100 uM after 72 hrs by MTT assay relative to control.

Take `COc1cccc(N2C(=O)CS[C@@H]2[C@H]2O[C@H](CO)[C@@H](O)[C@@H]2O)c1`: the Activity was found to be 17.6% in assay [1]; 165.1% in assay [2]; 129.3% in assay [3]; 158.7% in assay [4]; 125.4% in assay [5].
For `Cc1cccc(N2C(=O)CS[C@H]2[C@H]2O[C@H](CO)[C@@H](O)[C@@H]2O)c1` the same measures were 149.2%, 142.1%, 152.4%, 158.7% and 169.8%.
For `Cc1ccc(N2C(=O)CS[C@@H]2[C@H]2O[C@H](CO)[C@@H](O)[C@@H]2O)cc1` the same measures were 91.2%, 110%, 95.6%, 104% and 105.6%.
The matching figures for `O=C1CS[C@H]([C@H]2O[C@H](CO)[C@@H](O)[C@@H]2O)N1c1cccc(Cl)c1`: 162.2%, 155.6%, 158.7%, 161.1% and 144.4%.
In the case of `Cc1cccc(N2C(=O)CS[C@@H]2[C@H]2O[C@H](CO)[C@@H](O)[C@@H]2O)c1`, the Activity in assay [1] is on record as 163.5%; in assay [2], 155.6%; in assay [3] it was 157.9%; in assay [4], 134.9%; in assay [5] it was 160.3%.
Regarding `COc1cccc(N2C(=O)CS[C@H]2[C@H]2O[C@H](CO)[C@@H](O)[C@@H]2O)c1`, the Activity stood at 146% in assay [1]; 134.1% in assay [2]; 156.3% in assay [3]; 147.6% in assay [4]; 162.7% in assay [5].
For `CCOC(=O)c1ccc(N2C(=O)CS[C@@H]2[C@H]2O[C@H](CO)[C@@H](O)[C@@H]2O)cc1` the same measures were 132.5%, 177%, 126.2%, 206.3% and 180.2%.
Take `O=C1CS[C@H]([C@H]2O[C@H](CO)[C@@H](O)[C@@H]2O)N1c1ccc(Cl)cc1`: the Activity in assay [1] is 101.6%; in assay [2], 91.5%; in assay [3], 87.6%; in assay [4], 30.9%; in assay [5] it was 107.1%.
As for `COc1ccc(N2C(=O)CS[C@H]2[C@H]2O[C@H](CO)[C@@H](O)[C@@H]2O)cc1`, the Activity in assay [2] was found to be 106.8%; in assay [3] it was 106.8%; in assay [4], 103.2%; in assay [5], 99.2%.
As to `O=C1CS[C@@H]([C@H]2O[C@H](CO)[C@@H](O)[C@@H]2O)N1c1ccc(Cl)cc1`, the Activity in assay [1] came out at 100%; in assay [2], 101.2%; in assay [3] it was 102.2%; in assay [4], 112.3%; in assay [5], 112.4%.
The matching figures for `O=C1CS[C@@H]([C@H]2O[C@H](CO)[C@@H](O)[C@@H]2O)N1c1cccc(Cl)c1`: 139.7%, 138.2%, 130.3%, 121.5% and 126%.
For `Cc1ccc(N2C(=O)CS[C@H]2[C@H]2O[C@H](CO)[C@@H](O)[C@@H]2O)cc1` the same measures were 84.9%, 83.7%, 86.1%, 96.3% and 95.2%.
For the compound `CCOC(=O)c1ccc(N2C(=O)CS[C@H]2[C@H]2O[C@H](CO)[C@@H](O)[C@@H]2O)cc1`, the Activity stood at 153.2% in assay [1]; 136.5% in assay [2]; 161.9% in assay [3]; 136.5% in assay [4]; 142.9% in assay [5].
With `COc1ccc(N2C(=O)CS[C@@H]2[C@H]2O[C@H](CO)[C@@H](O)[C@@H]2O)cc1`, the Activity worked out at 108.8% in assay [1]; 105.2% in assay [2]; 97.2% in assay [3]; 93.6% in assay [4]; 99.6% in assay [5].
